Reference: US8183395B2, “Compositions and methods for treating cancer” (Rutgers, The State University of New Jersey, priority 2007, dated 2012)

Assays:
Assay type in all cases: cell-based
[1] = tested on: W2 (apoptosis competent) cells; test: Apoptosis induction screen, MTT cell viability, W2 cells
From the text: (§1) Pro-apoptotic Bax and Bak are the essential and redundant regulators of apoptosis required for suppressing tumor growth and chemotherapeutic response. Because D3 cells are genetically deleted for Bax and Bak, there is no means to restore apoptosis in these cells, yet all apoptosis regulatory mechanisms upstream (Bcl-2, Bcl-xL, Bim, Nbk/Bik, Puma, Noxa, caspase-3, caspase-7) remain intact. […] This feature permits the use of W2 and D3 cell lines in biological screening for compounds that promote apoptosis by the criteria of killing W2 and not D3 cells. Compounds that indiscriminately kill both apoptosis-competent W2 and apoptosis-defective D3 cells are eliminated as non-specifically toxic.
(§2) W2 and D3 cells were plated in 96 and 24-well plates and incubated for 24 hours after which they were evenly spread at about 50% confluency. At this time, compounds dissolved in DMSO and diluted in growth medium (DMEM) were added to the cells at various concentrations. […] Cell viability was determined using a modification of the MTT assay, where the reduction of yellow tertazolium salt (MTT-3-(4,5-Dimethylthiazol-2-yl)-2,5) to purple formazan indicates mitochondrial activity, and thus cell viability. […] After 30 minutes incubation at 37° C., with shaking, absorbance was read at 570 nm on a Spectra MAX 250 (Molecular Devices) plate reader. Differential growth from time 0 to 48 hours was calculated. […]

[2] = tested on: D3 (apoptosis defective) cells; test: Apoptosis induction screen, MTT cell viability, D3 cells; conditions: MTT assay, time 0 to 48 hours, Compound I 12 μM (FIG. 3a)
From the text: as §1, §2

[3] = tested on: apoptosis competent W2 cells; test: Time-lapse microscopy of cell division and viability, W2 cells; set-up: sensitivity of W2 cells to apoptosis: dose or concentration left out as unconfirmed
Protocol: (§3) In order to determine the differential impact of apoptosis induction on cell growth and viability of W2 and D3 cells, cell division and viability was monitored via time-lapse microscopy. Cells were cultured in a time-lapse chamber equipped with controlled environmental conditions. The time-lapse microscopy system consisted of an Olympus IX71 inverted microscope fitted with temperature, humidity and CO2 controlled environmental chamber (Solent Scientific, UK) and a Coolsnap ES cooled
(§4) CCD camera. Image capturing and analysis were performed using Image-Pro Plus software (Media Cybernetics, USA). Phase contrast images (100×) at multiple fields were obtained for the indicated time period. Time-lapse images were converted to movies using Image-Pro Plus software with custom modifications and a graphic data processing workstation (Dell Precision 670).
(§5) W2 and D3 cells were incubated for 48 hours in the presence of Compound I […] (FIG. 3b).

[4] = tested on: apoptosis resistant D3 cells; test: Time-lapse microscopy of cell division and viability, D3 cells; set-up: dose or concentration left out as unconfirmed
Protocol: as §3, §4, §5

## C=C1CC/C=C(\C)CC[C@@H]2C(C(CC3OC3(C)C)OC(C)=O)=CO[C@H](OC(C)=O)[C@@H]12 (some centres unmarked) [Compound I, 9-deacetoxyxeniculin]
[1]; MTT assay, time 0 to 48 hours, Compound I 12 μM (FIG. 3a)
  death of W2: 50%
[2]
  growth of D3: 61%
[3]; 48 hours
  sensitivity of W2 cells to apoptosis: highly sensitive to apoptosis
[3]; DMEM with 10% FBS, 5% CO2 at 37° C.
  time to induction of cell death of W2 cells (rounded and detached): 18 to 24 h
[4]
  growth arrest in treated D3 cells: clear indication of growth arrest
  survival of the D3 cells: at least 72 hours
[4]; at 48 hours, persisted following 72 hours
  viability of D3 cells: retained their viability

## CN[C@@H]1C[C@H]2O[C@@](C)([C@@H]1OC)n1c3ccccc3c3c4c(c5c6ccccc6n2c5c31)C(=O)NC4 [staurosporine, reference compound]
[1]; W2 and D3 cells, 0.1 μM staurosporine
  apoptosis induction (positive control): induced apoptosis at comparable levels to Compound I
